Columns and labels:
[1] = tested on: intracellular beta-lactamase; assay: nitrocefin hydrolysis by bacterial cell suspension on Phoenix panel; type: cell-based, E. coli; design: unit not given here; conditions: maximum hydrolysis rate within 10 hrs; for NCF activity: no lysis reagent
Procedure: (§1) Panel production. Stock solutions with nitrocefin, trehalose, and/or reagents used to lyse the bacterial cells in pH6 MES buffer were prepared and dispensed into wells on the bottom part of a Phoenix™ panel (BD, USA), with one stock solution in one well. Panels were then dried in an oven for approximately 30 min at approximately 70° C. The top part of Phoenix panel was then attached to the bottom part forming a panel system ready for inoculation. The concentrations of reagents after rehydration following Phoenix panel inoculation were 3 mg/ml lysozyme, 1 mM EDTA, and 1% trehalose in 0.1M pH6 MES buffer.
(§2) Inoculation and lysis testing. Representative strains of bacteria, such as E. coli and Klebsiella pneumoniae, were each streaked on a Trypticase™ Soy Agar with 5% Sheep Blood agar plate (BD, USA) and the plates were incubated at 35° C. for 18 hours. Afterwards, colonies from pure culture on each plate were inoculated into BD Phoenix ID broth and adjusted to a desired turbidity of approximately 0.5 MacFarland. The bacterial cell suspension was then poured into the ID side of the Phoenix panels that were specifically made for cell lysis testing. Once inoculated, the panel was loaded into Phoenix instrument, where nitrocefin hydrolysis rate was monitored by colorimetric signals changes every 20 minutes for 16 hours.
(§3) Microorganism. The presence of beta-lactamase in the strains tested herein was previously characterized by isoelectric focusing (IEF) gel electrophoresis, PCR testing, or MIC assays, which were performed by microbroth dilution method according to the CLSI (Clinical and Laboratory Standards Institute) standard.

[2] = tested on: intracellular beta-lactamase; assay: as above; type: cell-based, Klebsiella pneumoniae; design: unit not given here; conditions: maximum hydrolysis rate within 10 hrs; for NCF activity: no lysis reagent
Procedure: as §1, §2, §3

[3] = Sample 1, E. coli, beta-lactamase +
[4] = Sample 2, E. coli, beta-lactamase +
[5] = Sample 3, E. coli, beta-lactamase +
[6] = Sample 4, E. coli, beta-lactamase +
[7] = Sample 5, E. coli, beta-lactamase +
[8] = Sample 6, E. coli, beta-lactamase +
[9] = Sample 7, E. coli, beta-lactamase +
[10] = Sample 8, E. coli, beta-lactamase −
[11] = Sample 9, Klebsiella pneumoniae, beta-lactamase +
[12] = Sample 10, Klebsiella pneumoniae, beta-lactamase +
[13] = Sample 11, Klebsiella pneumoniae, beta-lactamase +
[14] = Sample 12, Klebsiella pneumoniae, beta-lactamase +
[15] = Sample 13, Klebsiella pneumoniae, beta-lactamase +
[16] = Sample 14, Klebsiella pneumoniae, beta-lactamase +
[17] = Sample 15, Klebsiella pneumoniae, beta-lactamase +
[18] = Sample 16, Klebsiella pneumoniae, beta-lactamase −

Which NCF activity [1, 3] does the source give for O=C(Cc1cccs1)N[C@@H]1C(=O)N2C(C(=O)O)=C(/C=C/c3ccc([N+](=O)[O-])cc3[N+](=O)[O-])CS[C@H]12 [NCF, 3-[2,4-dinitrostyryl]-7-(2-thienylacetamido]3-cephem-4-carboxylic acid] here?
Its NCF activity is 1.9.

And the “NCF activity with lysis reagent” value [1, 3]?
The value was 7.2.

And the NCF activity [1, 4]?
Its NCF activity is 2.1.

What about the “NCF activity with lysis reagent” value [1, 4] of the same compound?
The value was 7.7.

What about the NCF activity [1, 5] of the same compound?
The NCF activity was 2.3.

What about the “NCF activity with lysis reagent” value [1, 5] of the same compound?
The value was 8.1.

And the NCF activity [1, 6]?
Its NCF activity is 1.9.

And the “NCF activity with lysis reagent” value [1, 6]?
The value was 6.8.

What about the NCF activity [1, 7] of the same compound?
Its NCF activity is 8.2.

What about the “NCF activity with lysis reagent” value [1, 7] of the same compound?
Its value is 9.1.

What about the NCF activity [1, 8] of the same compound?
The NCF activity was 7.2.

And the “NCF activity with lysis reagent” value [1, 8]?
Its value is 8.1.

And the NCF activity [1, 9]?
Its NCF activity is 6.8.

What about the “NCF activity with lysis reagent” value [1, 9] of the same compound?
The value was 8.4.

And the NCF activity [1, 10]?
Its NCF activity is 1.7.

What about the “NCF activity with lysis reagent” value [1, 10] of the same compound?
Its value is 1.8.

What about the NCF activity [2, 11] of the same compound?
Its NCF activity is 1.3.

What about the “NCF activity with lysis reagent” value [2, 11] of the same compound?
The value was 4.6.

And the NCF activity [2, 12]?
Its NCF activity is 3.3.

What about the “NCF activity with lysis reagent” value [2, 12] of the same compound?
The value was 6.3.

What about the NCF activity [2, 13] of the same compound?
The NCF activity was 3.9.

And the “NCF activity with lysis reagent” value [2, 13]?
The value was 6.1.

What about the NCF activity [2, 14] of the same compound?
The NCF activity was 2.6.

And the “NCF activity with lysis reagent” value [2, 14]?
Its value is 5.6.

And the NCF activity [2, 15]?
The NCF activity was 6.7.

And the “NCF activity with lysis reagent” value [2, 15]?
Its value is 6.8.

What about the NCF activity [2, 16] of the same compound?
The NCF activity was 7.5.

And the “NCF activity with lysis reagent” value [2, 16]?
The value was 8.8.

And the NCF activity [2, 17]?
The NCF activity was 9.1.

And the “NCF activity with lysis reagent” value [2, 17]?
The value was 9.5.

What about the NCF activity [2, 18] of the same compound?
Its NCF activity is 1.2.

What about the “NCF activity with lysis reagent” value [2, 18] of the same compound?
The value was 1.8.
